The values that follow come from US9765073B2, “Cyclopropabenzofuranyl pyridopyrazinediones” (Pfizer Inc., priority 2015, dated 2017).

The subject of one test is γ-secretase. Nature of the test: Cell-Based γ-Secretase Assay with ELISA Readout. On the set-up: species or system human. As to conditions: comparison of the Table 7 potencies of separated enantiomers. The method, then: The ability of compounds to modulate production of amyloid beta protein Aβ(1-42) was determined using human WT-APP overexpressing CHO cells. Cells were plated at 22,000 cells/100 μL well in 96 well tissue culture treated, clear plates (Falcon) in DMEM/F12 based medium and incubated for 24 h at 37° C. Compounds for testing were diluted in 100% DMSO to achieve an eleven point, half log, dose response for IC50 determinations. Compounds were added in fresh medium to achieve 1% final DMSO. Appropriate vehicle or inhibitor controls were added into control wells individually to obtain minimum or maximum inhibition values, respectively, for the assay signal window before the plates were incubated for ˜24 h at 37° C. This procedure produces conditioned media in each well, which is tested for Aβ(1-42) levels in the ELISA detection step described next. The remaining cell cultures in each well are also tested for cell toxicity as described below.
Coating of ELISA assay plates was initiated by addition of 50 μL/well of an in-house Aβ(1-42) specific antibody (3 μg/mL) in 0.1 M NaHCO3 (pH 9.0) into black 384-well Maxisorp® plates (Nunc); incubation was carried out overnight at 4° C. The capture antibody was then aspirated from the ELISA assay plates and plates were washed either 2×100 μL with a Matrical Squirt plate washer, or 3×90 μL with a Thermo Combi, using Wash Buffer (Dulbecco's PBS, 0.05% Tween 20). 90 μL/well of Blocking Buffer (Dulbecco's PBS, 1.0% BSA (Sigma A7030) was then added to plates. Ambient temperature incubation was allowed to proceed for a minimum of 2 h. Blocking Buffer was then removed and 20 μL/well Assay Buffer (Dulbecco's PBS, 1.0% BSA (Sigma A7030), 0.05% Tween 20) was then added. At this point, 35 μL (40 μL prior to August, 2012) (in duplicate) of experimental conditioned media (described above) was transferred into wells of the blocked ELISA plates containing the capture antibody, followed by overnight incubation at 4° C. Cell toxicity was also measured in the corresponding remaining cells after removal of the conditioned media for the Aβ(1-42) assay by a colorimetric cell proliferation assay (CellTiter 96® AQueous One Solution Cell Proliferation Assay, Promega) according to the manufacturer's instructions.
After overnight incubation of the ELISA assay plates at 4° C., unbound Aβ peptides were removed via either 2×100 μL washes with a Matrical Squirt plate washer, or 3×90 μL washes with a Thermo Combi, using Wash Buffer. Europium (Eu) labeled (custom labeled, PerkinElmer) Aβ(1-16) 6e10 Monoclonal Antibody (Covance #SIG-39320) was added, (50 μL/well Eu-6e10@1:10,000, 20 uM EDTA) in Assay Buffer. Incubation at ambient temperature for a minimum of 2 h was followed by either 2×100 μL washes with a Matrical Squirt plate washer, or 3×90 μL washes with a Thermo Combi, using Wash Buffer, before 30 μL/well of Delfia Enhancement Solution (PerkinElmer) was added. Following 30 to 60 min ambient temperature incubation, the plates were read on an EnVision plate reader (PerkinElmer) using standard DELFIA TRF settings. Data analysis including inhibitory IC50 determination was performed using nonlinear regression fit analysis (in-house software) and the appropriate plate mean values for the maximum and minimum inhibition controls.
Turning to `Cc1cn(-c2ccc3n(c2=O)CCN(C[C@@]24C[C@]2(C)Oc2ccc(OC(F)(F)F)cc24)C3=O)cn1` (single isomer, unassigned) [Example 2], the “potency compared with its enantiomer” value is “more potent than its enantiomer 3”.

The test is the same for the next values; noted with them: production of Aβ(1-42) in human WT-APP overexpressing CHO cells, ~24 h; footnote a = single determination, footnote b = geometric mean of ≧5 determinations; read-out: Aβ 42B IC50 (nM) Geometric mean of 2-4 determinations (unless otherwise indicated).
With `Cc1cn(-c2ccc3n(c2=O)CCN(CC24CC2(C)Oc2c(F)cc(OC(F)(F)F)cc24)C3=O)cn1` (racemic) [Example C33, 2-{[3-fluoro-1a-methyl-5-(trifluoromethoxy)-1,1a-dihydro-6bH-cyclopropa[b][1]benzofuran-6b-yl]methyl}-7-(4-methyl-1H-imidazol-1-yl)-3,4-dihydro-2H-pyrido[1,2-a]pyrazine-1,6-dione], the IC50 was determined as 9.3 nM.

For `Cc1cn(-c2ccc3n(c2=O)CCN(C[C@@]24C[C@]2(C)Oc2ccc(OC(F)(F)F)cc24)C3=O)cn1` (single isomer, unassigned) [Example 2], the IC50 came to 6.5 nM.

As for `Cc1cn(-c2ccc3n(c2=O)CCN(C[C@]24C[C@@]2(C)Oc2ccc(OC(F)(F)F)cc24)C3=O)cn1` (single isomer, unassigned) [Example 3], the IC50 turned out to be 59.2 nM.

On to `Cc1cn(-c2ccc3n(c2=O)CCN(C[C@@]24C[C@]2(C)Oc2c(F)cc(OC(F)(F)F)cc24)C3=O)cn1` (single isomer, unassigned) [Example 4], for which the IC50 is 4.9 nM.

As for `Cc1cn(-c2ccc3n(c2=O)CCN(C[C@]24C[C@@]2(C)Oc2c(F)cc(OC(F)(F)F)cc24)C3=O)cn1` (single isomer, unassigned) [Example 5], the IC50 amounted to 59.2 nM.

On to `Cc1cn(-c2ccc3n(c2=O)CCN(C[C@@]24C[C@]2(C)Oc2cc(F)c(OC(F)(F)F)cc24)C3=O)cn1` (single isomer, unassigned) [Example 6], for which the IC50 turned out to be 7 nM.

On to `Cc1cn(-c2ccc3n(c2=O)CCN(C[C@]24C[C@@]2(C)Oc2cc(F)c(OC(F)(F)F)cc24)C3=O)cn1` (single isomer, unassigned) [Example 7], for which the IC50 is 38 nM.

With `Cc1ncn(-c2ccc3n(c2=O)CCN(C[C@@]24C[C@]2(C)Oc2cc(F)c(OC(F)(F)F)cc24)C3=O)n1` (single isomer, unassigned) [Example 8], the IC50 worked out at 36.6 nM.

As to `Cc1ncn(-c2ccc3n(c2=O)CCN(C[C@]24C[C@@]2(C)Oc2cc(F)c(OC(F)(F)F)cc24)C3=O)n1` (single isomer, unassigned) [Example 9], the IC50 is 519 nM.

Turning to `Cc1cn(-c2ccc3n(c2=O)CCN(C[C@@]24C[C@]2(C)Oc2cc(Cl)c(C(F)(F)F)cc24)C3=O)cn1` (single isomer, unassigned) [Example 10], the IC50 worked out at 3 nM.

Take `Cc1cn(-c2ccc3n(c2=O)CCN(C[C@]24C[C@@]2(C)Oc2cc(Cl)c(C(F)(F)F)cc24)C3=O)cn1` (single isomer, unassigned) [Example 11]: the IC50 stood at 10 nM.

Take `Cc1cn(-c2ccc3n(c2=O)CCN(C[C@@]24C[C@]2(C)Oc2cc(F)c(OC(F)F)cc24)C3=O)cn1` (single isomer, unassigned) [Example 12]: the IC50 came out at 17.8 nM.

`Cc1cn(-c2ccc3n(c2=O)CCN(C[C@]24C[C@@]2(C)Oc2cc(F)c(OC(F)F)cc24)C3=O)cn1` (single isomer, unassigned) [Example 13]: the IC50 worked out at 84.9 nM.

For `Cc1cn(-c2ccc3n(c2=O)CCN(C[C@@]24C[C@]2(C)Oc2cc(F)c(C(F)(F)F)cc24)C3=O)cn1` (single isomer, unassigned) [Example 17], the IC50 was determined as 4.4 nM.

As for `Cc1cn(-c2ccc3n(c2=O)CCN(C[C@]24C[C@@]2(C)Oc2cc(F)c(C(F)(F)F)cc24)C3=O)cn1` (single isomer, unassigned) [Example 18], the IC50 is 20.2 nM.

Consider `Cc1cn(-c2ccc3n(c2=O)CCN(C[C@@]24C[C@]2(C)Oc2c(F)cc(C(F)(F)F)cc24)C3=O)cn1` (single isomer, unassigned) [Example 19], for which the IC50 came out at 11.1 nM.

In the case of `Cc1cn(-c2ccc3n(c2=O)CCN(C[C@]24C[C@@]2(C)Oc2c(F)cc(C(F)(F)F)cc24)C3=O)cn1` (single isomer, unassigned) [Example 20], the IC50 amounted to 50.1 nM.

As to `Cc1cn(-c2ccc3n(c2=O)CCN(C[C@@]24C[C@]2(C)Oc2c(Cl)cc(C(F)(F)F)cc24)C3=O)cn1` (single isomer, unassigned) [Example 21], the IC50 is 16 nM.

On to `Cc1cn(-c2ccc3n(c2=O)CCN(C[C@]24C[C@@]2(C)Oc2c(Cl)cc(C(F)(F)F)cc24)C3=O)cn1` (single isomer, unassigned) [Example 22], for which the IC50 was 58.3 nM.

As to `Cc1cn(-c2ccc3n(c2=O)CCN(CC24CC2Oc2ccc(C(F)(F)F)cc24)C3=O)cn1` (stereo not drawn) [Example 1, 7-(4-Methyl-1H-imidazol-1-yl)-2-{[5-(trifluoromethyl)-1,1a-dihydro-6bH-cyclopropa[b][1]benzofuran-6b-yl]methyl}-3,4-dihydro-2H-pyrido[1,2-a]pyrazine-1,6-dione], the IC50 turned out to be 48.5 nM.

`C[C@]12C[C@@]1(CN1CCn3c(ccc(-n4cnc(CO)c4)c3=O)C1=O)c1cc(OC(F)(F)F)c(F)cc1O2` [Example 14, 2-{[(1aS,6bS)-4-fluoro-1a-methyl-5-(trifluoromethoxy)-1,1a-dihydro-6bH-cyclopropa[b][1]benzofuran-6b-yl]methyl}-7-[4-(hydroxymethyl)-1H-imidazol-1-yl]-3,4-dihydro-2H-pyrido[1,2-a]pyrazine-1,6-dione]: the IC50 is 18.7 nM.

Turning to `Cc1cn(-c2ccc3n(c2=O)CCN(C[C@@]24C[C@]2(C)Oc2ccc(C(F)(F)F)cc24)C3=O)cn1` [Example 15, 7-(4-methyl-1H-imidazol-1-yl)-2-{[(1aS,6bS)-1a-methyl-5-(trifluoromethyl)-1,1a-dihydro-6bH-cyclopropa[b][1]benzofuran-6b-yl]methyl}-3,4-dihydro-2H-pyrido[1,2-a]pyrazine-1,6-dione], the IC50 was found to be 8.5 nM.

Turning to `Cc1cn(-c2ccc3n(c2=O)CCN(C[C@]24C[C@@]2(C)Oc2ccc(C(F)(F)F)cc24)C3=O)cn1` [Example 16, 7-(4-methyl-1H-imidazol-1-yl)-2-{[(1aR,6bR)-1a-methyl-5-(trifluoromethyl)-1,1a-dihydro-6bH-cyclopropa[b][1]benzofuran-6b-yl]methyl}-3,4-dihydro-2H-pyrido[1,2-a]pyrazine-1,6-dione], the IC50 was 47.3 nM.

As to `Cc1cn(-c2ccc3n(c2=O)CCN(CC24CC2(C)Oc2ccc(OC(F)(F)F)cc24)C3=O)cn1` (stereo not drawn) [Example C22, 7-(4-methyl-1H-imidazol-1-yl)-2-{[1a-methyl-5-(trifluoromethoxy)-1,1a-dihydro-6bH-cyclopropa[b][1]benzofuran-6b-yl]methyl}-3,4-dihydro-2H-pyrido[1,2-a]pyrazine-1,6-dione], the IC50 is 19.5 nM.

With `Cc1cn(-c2ccc3n(c2=O)CCN(CC24CC2(C)Oc2cc(F)c(OC(F)(F)F)cc24)C3=O)cn1` (stereo not drawn) [Example C40, 2-{[4-fluoro-1a-methyl-5-(trifluoromethoxy)-1,1a-dihydro-6bH-cyclopropa[b][1]benzofuran-6b-yl]methyl}-7-(4-methyl-1H-imidazol-1-yl)-3,4-dihydro-2H-pyrido[1,2-a]pyrazine-1,6-dione], the IC50 came to 11.2 nM.

Consider `Cc1ncn(-c2ccc3n(c2=O)CCN(CC24CC2(C)Oc2cc(F)c(OC(F)(F)F)cc24)C3=O)n1` (stereo not drawn) [Example C44, 2-{[4-fluoro-1a-methyl-5-(trifluoromethoxy)-1,1a-dihydro-6bH-cyclopropa[b][1]benzofuran-6b-yl]methyl}-7-(3-methyl-1H-1,2,4-triazol-1-yl)-3,4-dihydro-2H-pyrido[1,2-a]pyrazine-1,6-dione], for which the IC50 worked out at 68.9 nM.
